Literature values as cited in PubChem BioAssay AID1259409 (Chemical Carcinogenesis Research Information System (CCRIS), 2018).
Values joined by “and” are separate entries in the source; they are usually repeats but may differ in a detail not shown here. Equal entries are not always repeated.

System: rodent chemically induced tumor inhibition, incidence and multiplicity
Assay: CCRIS tumor inhibitor studies

S=C=NCCc1ccccc1
tumour outcome (control, treated, inhibition, significance) (Carcinogen: 4-(N-NITROSOMETHYLAMINO)-1-(3-PYRIDYL)-1-BUTANONE, 64091-91-4, Dose [Inhibitor]: 0, 3 UMOL/G/DIET BEGINNING 1 WK PRIOR TO CARCINOGEN TREATMENT AND CONTINUING FOR 21 WK (STUDY DURATION: 104 WK), Route [Inhibitor]: ORAL, Species: RAT, Strain/Sex: F344/MALE, Target Tissue: Type of Lesion: NASAL CAVITY: BENIGN TUMOR, Dose [Carcinogen]: 1.76 MG/KG 3/WK FOR 20 WK, Promoter: NONE USED): 8/40 (20%), 6/40 (15%), 25%, not calculated
tumour outcome (control, treated, inhibition, significance) (Carcinogen: 4-(N-NITROSOMETHYLAMINO)-1-(3-PYRIDYL)-1-BUTANONE, 64091-91-4, Dose [Inhibitor]: 0, 3 UMOL/G/DIET BEGINNING 1 WK PRIOR TO CARCINOGEN TREATMENT AND CONTINUING FOR 21 WK (STUDY DURATION: 104 WK), Route [Inhibitor]: ORAL, Species: RAT, Strain/Sex: F344/MALE, Target Tissue: Type of Lesion: NASAL CAVITY: SQUAMOUS-CELL CARCINOMA, Dose [Carcinogen]: 1.76 MG/KG 3/WK FOR 20 WK, Promoter: NONE USED): 3/40 (8%), 1/40 (3%), 63%, not calculated
tumour outcome (control, treated, inhibition, significance) (Carcinogen: 4-(N-NITROSOMETHYLAMINO)-1-(3-PYRIDYL)-1-BUTANONE, 64091-91-4, Dose [Inhibitor]: 0, 5 UMOL/D FOR 4 CONSECUTIVE DAYS (STUDY DURATION: 16.5 WK), Route [Inhibitor]: GAVAGE, Species: MOUSE, Strain/Sex: STRAIN-A/FEMALE, Target Tissue: Type of Lesion: LUNG: ADENOMA, Dose [Carcinogen]: 10 UMOL ONCE 2 HR POST LAST AGENT DOSE, Promoter: NONE USED): 100%, 89%, 11%, not calculated and 100%, 93%, 7%, not calculated
tumour outcome (control, treated, inhibition, significance) (Carcinogen: 4-(N-NITROSOMETHYLAMINO)-1-(3-PYRIDYL)-1-BUTANONE, 64091-91-4, Dose [Inhibitor]: 0, 25 UMOL/D FOR 4 CONSECUTIVE DAYS (STUDY DURATION: 16.5 WK), Route [Inhibitor]: GAVAGE, Species: MOUSE, Strain/Sex: STRAIN-A/FEMALE, Target Tissue: Type of Lesion: LUNG: ADENOMA, Dose [Carcinogen]: 10 UMOL ONCE 2 HR POST LAST AGENT DOSE, Promoter: NONE USED): 100%, 30%, 70%, p<0.01
tumour outcome (control, treated, inhibition, significance) (Carcinogen: 7,12-DIMETHYLBENZ[A]ANTHRACENE, 57-97-6, Dose [Inhibitor]: 0, 600 PPM IN DIET FOR DURATION OF STUDY BEGINNING 1 WK PRIOR TO CARCINOGEN DOSE (STUDY DURATION: 107 D), Route [Inhibitor]: ORAL, Species: RAT, Strain/Sex: SPRAGUE-DAWLEY/FEMALE, Target Tissue: Type of Lesion: MAMMARY GLAND: ADENOCARCINOMA, Dose [Carcinogen]: 12 MG ONCE, Promoter: NONE USED): 70%, 85%, -21%, not significant
tumour outcome (control, treated, inhibition, significance) (Carcinogen: 7,12-DIMETHYLBENZ[A]ANTHRACENE, 57-97-6, Dose [Inhibitor]: 0, 1200 PPM IN DIET FOR DURATION OF STUDY BEGINNING 1 WK PRIOR TO CARCINOGEN DOSE (STUDY DURATION: 107 D), Route [Inhibitor]: ORAL, Species: RAT, Strain/Sex: SPRAGUE-DAWLEY/FEMALE, Target Tissue: Type of Lesion: MAMMARY GLAND: ADENOCARCINOMA, Dose [Carcinogen]: 12 MG ONCE, Promoter: NONE USED): 70%, 75%, -7%, not significant
tumour outcome (control, treated, inhibition, significance) (Carcinogen: 7,12-DIMETHYLBENZ[A]ANTHRACENE, 57-97-6, Dose [Inhibitor]: 5.5 MG/G DIET AT AGE 9 WK SIMULTANEOUSLY WITH CARCINOGEN 3/WK FOR 4 WK (STUDY DURATION: 20 WK), Route [Inhibitor]: ORAL, Species: MOUSE, Strain/Sex: ICR/FEMALE, Target Tissue: Type of Lesion: FORESTOMACH: TUMOR, Dose [Carcinogen]: 0.05 MG/G DIET AT AGE 9 WK 3/WK FOR 4 WK, Promoter: NONE USED): 93%, 12%, 87%, p<0.001
tumour outcome (control, treated, inhibition, significance) (Carcinogen: 7,12-DIMETHYLBENZ[A]ANTHRACENE, 57-97-6, Dose [Inhibitor]: 5.5 MG/G DIET AT AGE 9 WK SIMULTANEOUSLY WITH CARCINOGEN 3/WK FOR 4 WK (STUDY DURATION: 20 WK), Route [Inhibitor]: ORAL, Species: MOUSE, Strain/Sex: ICR/FEMALE, Target Tissue: Type of Lesion: LUNG: ADENOMA, Dose [Carcinogen]: 0.05 MG/G DIET AT AGE 9 WK 3/WK FOR 4 WK, Promoter: NONE USED): 100%, 89%, 11%, not significant
tumour outcome (control, treated, inhibition, significance) (Carcinogen: 7,12-DIMETHYLBENZ[A]ANTHRACENE, 57-97-6, Dose [Inhibitor]: 55 MG ONCE 4 HR BEFORE DMBA TREATMENT (STUDY DURATION: 18 WK), Route [Inhibitor]: INTRAGASTRIC, Species: RAT, Strain/Sex: SPRAGUE-DAWLEY/FEMALE, Target Tissue: Type of Lesion: MAMMARY GLAND: TUMOR, Dose [Carcinogen]: 12 MG IN 1 ML OLIVE OIL AT AGE 7 WK, Promoter: NONE USED): 100%, 43%, 57%, p<0.001
tumour outcome (control, treated, inhibition, significance) (Carcinogen: BENZO[A]PYRENE [50-32-8], Dose [Inhibitor]: 0.3 UMOL/G IN DIET FOR 10 WK BEGINNING 1 WK PRIOR TO FIRST CARCINOGEN DOSE (STUDY DURATION: 28 WK), Route [Inhibitor]: ORAL, Species: MOUSE, Strain/Sex: A/J/FEMALE, Target Tissue: Type of Lesion: LUNG: TUMOR, Dose [Carcinogen]: 3 UMOL IN 0.1 ML COTTONSEED OIL 1X/WK FOR 8 WK (STUDY DURATION: 28 WK), Promoter: NONE): 100%, 100%, 0%, not calculated
tumour outcome (control, treated, inhibition, significance) (Carcinogen: BENZO[A]PYRENE [50-32-8], Dose [Inhibitor]: 1 UMOL/G IN DIET FOR 10 WK BEGINNING 1 WK PRIOR TO FIRST CARCINOGEN DOSE (STUDY DURATION: 28 WK), Route [Inhibitor]: ORAL, Species: MOUSE, Strain/Sex: A/J/FEMALE, Target Tissue: Type of Lesion: LUNG: TUMOR, Dose [Carcinogen]: 3 UMOL IN 0.1 ML COTTONSEED OIL 1X/WK FOR 8 WK (STUDY DURATION: 28 WK), Promoter: NONE): 100%, 100%, 0%, not calculated
tumour outcome (control, treated, inhibition, significance) (Carcinogen: BENZO[A]PYRENE [50-32-8], Dose [Inhibitor]: 3 UMOL/G IN DIET FOR 10 WK BEGINNING 1 WK PRIOR TO FIRST CARCINOGEN DOSE (STUDY DURATION: 28 WK), Route [Inhibitor]: ORAL, Species: MOUSE, Strain/Sex: A/J/FEMALE, Target Tissue: Type of Lesion: LUNG: TUMOR, Dose [Carcinogen]: 3 UMOL IN 0.1 ML COTTONSEED OIL 1X/WK FOR 8 WK (STUDY DURATION: 28 WK), Promoter: NONE): 100%, 100%, 0%, not calculated
outcome (Carcinogen: BENZO[A]PYRENE, 50-32-8, Dose [Inhibitor]: 0, 5 UMOL IN ACETONE 4 HR PRIOR TO CARCINOGEN DOSE (STUDY DURATION: 20 WK), Route [Inhibitor]: DERMAL, Species: MOUSE, Strain/Sex: STRAIN-A/FEMALE, Target Tissue: Type of Lesion: SKIN: TUMOR, Dose [Carcinogen]: 0.1 UMOL IN ACETONE ONCE, Promoter: 12-O-TETRADECANOYLPHORBOL-13-ACETATE, 16561-29-8): 70%, 65%, 7%, not significant at 15 wk; 95%, 85%, 11%, not significant at 20 wk
tumour outcome (control, treated, inhibition, significance) (Carcinogen: BENZO[A]PYRENE, 50-32-8, Dose [Inhibitor]: 0, 6.7 UMOL IN COTTONSEED OIL 15 MIN PRIOR TO CARCINOGEN DOSES 1/2 WK FOR 3 TREATMENTS (STUDY DURATION: 26 WK), Route [Inhibitor]: GAVAGE, Species: MOUSE, Strain/Sex: STRAIN-A/FEMALE, Target Tissue: Type of Lesion: FORESTOMACH: TUMOR, Dose [Carcinogen]: 7.9 UMOL IN COTTONSEED OIL 1/2 WK FOR 3 TREATMENTS, Promoter: NONE USED): 95%, 90%, 5%, not significant
tumour outcome (control, treated, inhibition, significance) (Carcinogen: BENZO[A]PYRENE, 50-32-8, Dose [Inhibitor]: 0, 6.7 UMOL IN COTTONSEED OIL 15 MIN PRIOR TO CARCINOGEN DOSES 1/2 WK FOR 3 TREATMENTS (STUDY DURATION: 26 WK), Route [Inhibitor]: GAVAGE, Species: MOUSE, Strain/Sex: STRAIN-A/FEMALE, Target Tissue: Type of Lesion: LUNG: TUMOR, Dose [Carcinogen]: 7.9 UMOL IN COTTONSEED OIL 1/2 WK FOR 3 TREATMENTS, Promoter: NONE USED): 95%, 90%, 5%, not significant
